# Patent EP2974714B1, “USE OF DERIVATIVES WITH C-O-P BONDS IN PATIENTS WITH RENAL FAILURE” (LABORATORIS SANIFIT, S.L., priority 2013, dated 2014)
# Experiments:
# [1] = HAP crystallisation induction period (synergy with other treatments); format: physicochemical; settings: drug effect simulated by modifying calcium and phosphate concentrations; control 8 minutes
# Description: Experimental: hydroxyapatite (HAP) was crystallised by mixing appropriate concentrations of calcium and phosphate at pH 7.4. The effect of cinacalcet and sevelamer was simulated by suitably modifying the calcium and phosphate concentrations. The induction period (time required for HAP to begin to crystallise) was recorded as the analytical signal.
# [2] = system: vit D-induced cardiovascular calcification in rats; test: Inhibition of vit D-induced (300,000 IU/kg x 3) cardiovascular calcification by s.c. IP6; format: in vivo, male SD rats; settings: s.c.
# Description: Experimental: male SD rats were divided into 9 groups. Two of said groups (sham and control groups) received s.c. saline 2 ml/kg; 6 groups received s.c. […] One group was treated with a s.c. Alzet pump loaded with 200 mg/ml IP6. Calcification was induced by oral administration of 300,000 IU/kg vitamin D (2 ml/kg) for 3 days starting on treatment day 3. […] The calcium content in heart, aorta and kidneys was determined after treatment for 7 days.
Compound,induction time (without IP6) [1],dose causing the same effect as 10 mg/kg IP6 [2],efficacy against calcification (in words) ([2]; at higher doses than IP6)
"C[C@@H](NCCCc1cccc(C(F)(F)F)c1)c1cccc2ccccc12 [cinacalcet, reference compound]",14 min,–,–
"O=P([O-])([O-])OP(=O)([O-])[O-].[Na+].[Na+].[Na+].[Na+] [pyrophosphate, sodium pyrophosphate, reference compound]",–,28 mg/kg,good efficacy
